Data from patent publication US9738628B2, “Substituted 1H-indazol-1-OL analogs as inhibitors of beta catenin/Tcf protein-protein interactions” (University of Utah Research Foundation, priority 2012, dated 2017).

Assays:
[1] = tested on: HCT116 colon cancer cell line; assay: MTS-based cell proliferation inhibition assay; design: species or system human; settings: dose-dependent (FIG. 2)
β-catenin/Tcf4 = β-catenin/Tcf4 (Homo sapiens (Human), UniProt P35222); assay: Fluorescence polarization (FP) competitive inhibition assay, β-catenin/Tcf4; format: binding; settings: Table 2, mean ± SD (n=3)
β-catenin/Tcf4, sequence (P35222 138-686): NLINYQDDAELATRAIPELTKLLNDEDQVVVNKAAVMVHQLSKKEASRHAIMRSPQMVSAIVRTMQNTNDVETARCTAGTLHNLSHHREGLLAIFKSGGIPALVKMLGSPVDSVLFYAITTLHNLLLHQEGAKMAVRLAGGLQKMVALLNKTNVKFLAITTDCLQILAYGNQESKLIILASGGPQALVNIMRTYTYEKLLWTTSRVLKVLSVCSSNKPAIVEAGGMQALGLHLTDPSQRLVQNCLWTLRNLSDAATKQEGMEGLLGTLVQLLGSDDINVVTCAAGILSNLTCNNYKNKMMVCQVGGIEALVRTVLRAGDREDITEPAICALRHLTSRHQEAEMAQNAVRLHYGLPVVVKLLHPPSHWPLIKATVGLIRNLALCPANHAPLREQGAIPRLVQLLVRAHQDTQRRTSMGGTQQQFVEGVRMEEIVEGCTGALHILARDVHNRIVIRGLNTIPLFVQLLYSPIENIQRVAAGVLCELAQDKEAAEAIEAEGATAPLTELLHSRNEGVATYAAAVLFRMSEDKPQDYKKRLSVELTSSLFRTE
Procedure: Experiments were performed in 96-well Microfluor 2 black plates (Waltham, Mass.), and the samples were read by a Synergy 2 plate reader (Biotek, Winooski, Vt.). […] The final reaction volume is 100 μL.

Substance | inhibition of growth of colon cancer cell HCT116 [1] | Ki (β-catenin/Tcf4) [µM]
5-(2-(2H-tetrazol-5-yl)ethyl)-1H-indazol-1-ol [Compound 12] | inhibit the proliferation | 
3-(2-(1-hydroxy-1H-indazol-5-yl)ethyl)-1,2,4-oxadiazole-5(4H)-thione [Compound 14] | inhibit the proliferation | 
3-((1-hydroxy-1H-indazol-5-yl)methyl)-1,2,4-oxadiazol-5(4H)-one [Compound 10] |  | 125 ± 1.3
